Patent US10206997B2, “Facilitator-DNA combination vaccine” (priority 2011, dated 2019)

Assays:
[1] = tested on: RAW264.7, JAWSII and DC2.4 cell lines; assay: Cy5-pEGFP plasmid entry and expression in antigen presenting cell lines; format: cell-based
Protocol: (§1) With respect to cell culture and inhibiter treatment, RAW264.7 and DC2.4 were cultured in DMEM/10% FCS, and JAWSII was cultured in DMEM/10% FCS with GMCSF (1000 U/ml, Peprotech, USA). Amiloride (Sigma-Aldrich, USA) was prepared as 10 mM solution and was diluted to 1 mM, 100 uM, 10 uM in DMEM medium before treatment. After culture medium was removed, cells were treated with amiloride, MβCD (5 mM, Sigma) or Fillipin (10 ng/ml, sigma) at 37° C. for 1 h. LPS (10 ng/ml, sigma) or 10 ng/ml DNA in DMEM was added at 37° C. for 0.5 h, after wash, culture medium was added and cells were cultured.
With respect to plasmid preparation and fluorescence conjugation, pEGFP (Clontech, USA) and pcD-S2 plasmid were prepared from DH5a culture, purified by EndoFree Plasmid Maxi Kit (Qiagen, Germany) and endotoxin was below 10 EU/mg by LAL test. Cy5 was conjugated to plasmid with Minis Label IT Kit (Minis, USA) as manual instructed.

[2] = tested on: Cy5-plasmid+ cells in lymph nodes; assay: Cy5-pEGFP plasmid entry in vivo, Cy5+ cells in draining lymph nodes by FACS; design: species or system C57B/6 mice; details: hind footpad, 4 hrs
Protocol: (§2) 4 h later, both inguinal lymph nodes were collected.

RAW264.7 = assay: APC maturation markers and innate cytokine secretion with pcD-S2; format: cell-based; details: pcD-S2 with vs without amiloride
Protocol: as §1

HBsAg = assay: Antibody against HBsAg after footpad immunization; format: in vivo, C57B/6 mice
CD8+ T effectors = assay: Multi-color flow cytometry of CD8+ T effectors (IFN-γ, perforin, granzyme B); format: in vivo, mice; details: HBsAg restimulation
Protocol: as §2
With respect to multi-color flow cytometry, a multi-color panel was set up with anti-CD3, anti-CD8, anti-IFN-γ, anti-perforin and anti-granzyme B. After restimulation in vitro by sAg for 24 h or S208-215 for 12 h, following monensin block for 6 h, splenocyte was fixed, penetrated and stained. Data was collected with BD Aria and analyzed with Flowjo (Tree Star, Ashland, USA).

[3] = tested on: CD8 T cells co-cultured with peritoneal macrophages or spleen dendritic cells; assay: Co-culture of treated APCs with purified CD8 T cells; format: cell-based, mice; details: macrophages and DCs co-culture; pcD-S2 with vs without amiloride
Protocol: With respect to co-cultures, pcD-S2 (10 μg/ml) with or without 100 μM amiloride treat APCs, peritoneal macrophage or spleen dendritic cell, were cultured for 2 days. At day 3, purified CD8 T cell (R&D systems, USA) was added into culture with APC:T ratio of 1:5, 1:2, 1:1. At day 8, cells were collected and restimulated with S208-215 (10 μg/ml). PMA+Ionomycin was added as positive control for restimulation.

N=C(N)NC(=O)c1nc(Cl)c(N)nc1N [amiloride]
GFP expression ([1]; 1 mM amiloride pre-treatment, after 3 days culture, vs un-treated cells): significantly higher level of GFP | GFP expression relative to liposome treated cells ([1]; 1 mM amiloride, 3 days): comparable with that of liposome treated cells | uptake of Cy5-labeled pEGFP plasmids ([1]; pre-treated with 1 mM amiloride for 1 h, within 2 hrs, vs un-treated cells): significantly taken up | percentage of Cy5-plasmid+ cells in lymph nodes (LN) ([2]; 10 μM amiloride): increased | percentage of Cy5-plasmid+ cells in lymph nodes (LN) ([2]; 100 μM amiloride): peaked | percentage of Cy5-plasmid+ cells in lymph nodes (LN) ([2]; 1 mM amiloride): decreased | expression of TNF and IFN-γ (RAW264.7; RAW264.7): higher levels of expression of TNF and IFN-γ | expression of maturation markers CD40, CD80 and CD86 (RAW264.7; RAW264.7 in vitro): higher levels of expression of CD40, CD80 and CD86 | most effective dose of amiloride for in vivo treatment (HBsAg; antibody and DTH experiments): 1 mM | levels of antibody against HBsAg (HBsAg; footpad immunization, vs pcD-S2 alone, dose dependent): increased | triple positive cells in HBsAg stimulated CD8 response (CD8+ T effectors): triple positive cells could also be observed | percentage of S208-215 specific triple positive CD8 T effectors [3]: significantly increased
